This assay has as its system HCV replicon, genotype-1a variant with glutamine 30 changed to glutamate in the NS5A protein. Description: microbe, parasite or virus in culture. The assay is classed as cell-based, HCV genotype 1a. Conditions: HCV replicon genotype 1a Q30E (Q→E) variant; test compound titrated with an NS5A-targeting compound (BMS-790052 fixed at 200 nM); ranking of synergist activity. In outline: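 Synergy was assessed by combining several fixed amounts of an NS5A-targeting compound with a titration of the second compound of interest.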
(Replicon systems follow genome replication, usually without infectious particles.)

The record followed here is patent US9326973B2, “Hepatitis C virus inhibitors” (priority 2012, dated 2016).

Take `O=C(Cc1cccc2ccccc12)N1CCC[C@H]1c1ncc(-c2ccc(-c3ccc(-c4cnc([C@@H]5CCCN5C(=O)Cc5cccc6ccccc56)[nH]4)cc3)cc2)[nH]1` [Compound S-144]: the “Fold-Synergistic 1a (Q30E)” value was >10 fold.
To `O=C(Cc1ccc2ccccc2c1)N1CCC[C@H]1c1ncc(-c2ccc(-c3ccc(-c4cnc([C@@H]5CCCN5C(=O)Cc5ccc6ccccc6c5)[nH]4)cc3)cc2)[nH]1` [Compound S-145] belongs >10 fold.
Under `O=C(C(c1ccccc1)c1ccccc1)N1CCC[C@H]1c1ncc(-c2ccc(-c3ccc(-c4cnc([C@@H]5CCCN5C(=O)C(c5ccccc5)c5ccccc5)[nH]4)cc3)cc2)[nH]1` [Compound S-146] stands <10 fold; under `O=C(Cc1ccc(-c2ccccc2)cc1)N1CCC[C@H]1c1ncc(-c2ccc(-c3ccc(-c4cnc([C@@H]5CCCN5C(=O)Cc5ccc(-c6ccccc6)cc5)[nH]4)cc3)cc2)[nH]1` [Compound S-147], <10 fold.
Under `O=C(Cc1c[nH]c2ccccc12)N1CCC[C@H]1c1ncc(-c2ccc(-c3ccc(-c4cnc([C@@H]5CCCN5C(=O)Cc5c[nH]c6ccccc56)[nH]4)cc3)cc2)[nH]1` [Compound S-148] stands >10 fold; under `O=C(Cc1ccccn1)N1CCC[C@H]1c1ncc(-c2ccc(-c3ccc(-c4cnc([C@@H]5CCCN5C(=O)Cc5ccccn5)[nH]4)cc3)cc2)[nH]1` [Compound S-149], <10 fold; under `O=C(Cc1ccncc1)N1CCC[C@H]1c1ncc(-c2ccc(-c3ccc(-c4cnc([C@@H]5CCCN5C(=O)Cc5ccncc5)[nH]4)cc3)cc2)[nH]1` [Compound S-150], <10 fold.
With `O=C(CCn1ccc2ccccc21)N1CCC[C@H]1c1ncc(-c2ccc(-c3ccc(-c4cnc([C@@H]5CCCN5C(=O)CCn5ccc6ccccc65)[nH]4)cc3)cc2)[nH]1` [Compound S-151], the “Fold-Synergistic 1a (Q30E)” value is recorded as >10 fold.
Under `Cc1ccc(C2(C(=O)N3CCC[C@H]3c3ncc(-c4ccc(-c5ccc(-c6cnc([C@@H]7CCCN7C(=O)C7(c8ccc(C)cc8)CCCC7)[nH]6)cc5)cc4)[nH]3)CCCC2)cc1` [Compound S-152] stands <10 fold; under `Cc1cn(CCC(=O)N2CCC[C@H]2c2ncc(-c3ccc(-c4ccc(-c5cnc([C@@H]6CCCN6C(=O)CCn6cc(C)c7ccccc76)[nH]5)cc4)cc3)[nH]2)c2ccccc12` [Compound S-153], >10 fold.
With `O=C(Cc1ccc(Oc2ccccc2)cc1)N1CCC[C@H]1c1ncc(-c2ccc(-c3ccc(-c4cnc([C@@H]5CCCN5C(=O)Cc5ccc(Oc6ccccc6)cc5)[nH]4)cc3)cc2)[nH]1` [Compound S-154], the “Fold-Synergistic 1a (Q30E)” value is reported as >10 fold.
To `O=C(N1CCC[C@H]1c1ncc(-c2ccc(-c3ccc(-c4cnc([C@@H]5CCCN5C(=O)C5(c6ccccc6F)CCCC5)[nH]4)cc3)cc2)[nH]1)C1(c2ccccc2F)CCCC1` [Compound S-155] belongs <10 fold; to `O=C(N1CCC[C@H]1c1ncc(-c2ccc(-c3ccc(-c4cnc([C@@H]5CCCN5C(=O)C5(c6ccc(F)cc6Cl)CCCC5)[nH]4)cc3)cc2)[nH]1)C1(c2ccc(F)cc2Cl)CCCC1` [Compound S-156], <10 fold.
To `O=C(C1Cc2ccccc2O1)N1CCC[C@H]1c1ncc(-c2ccc(-c3ccc(-c4cnc([C@@H]5CCCN5C(=O)C5Cc6ccccc6O5)[nH]4)cc3)cc2)[nH]1` (stereo partly shown) [Compound S-157] belongs >10 fold.
As for `COc1ccc(C2(C(=O)N3CCC[C@H]3c3ncc(-c4ccc(-c5ccc(-c6cnc([C@@H]7CCCN7C(=O)C7(c8ccc(OC)cc8)CCCC7)[nH]6)cc5)cc4)[nH]3)CCCC2)cc1` [Compound S-158], the “Fold-Synergistic 1a (Q30E)” value was <10 fold.
Under `O=C(N1CCC[C@H]1c1ncc(-c2ccc(-c3ccc(-c4cnc([C@@H]5CCCN5C(=O)C5(c6ccccc6)CC5)[nH]4)cc3)cc2)[nH]1)C1(c2ccccc2)CC1` [Compound S-159] stands <10 fold.
To `CC1(C(=O)N2CCC[C@H]2c2ncc(-c3ccc(-c4ccc(-c5cnc([C@@H]6CCCN6C(=O)C6(C)CC6)[nH]5)cc4)cc3)[nH]2)CC1` [Compound S-160] belongs <10 fold.
Under `O=C(C1CCC1)N1CCC[C@H]1c1ncc(-c2ccc(-c3ccc(-c4cnc([C@@H]5CCCN5C(=O)C5CCC5)[nH]4)cc3)cc2)[nH]1` [Compound S-162] stands <10 fold.
As to `O=C(C1Cc2ccccc21)N1CCC[C@H]1c1ncc(-c2ccc(-c3ccc(-c4cnc([C@@H]5CCCN5C(=O)C5Cc6ccccc65)[nH]4)cc3)cc2)[nH]1` (stereo partly shown) [Compound S-163], the “Fold-Synergistic 1a (Q30E)” value is given as <10 fold.
Under `O=C(C1CCCC1)N1CCC[C@H]1c1ncc(-c2ccc(-c3ccc(-c4cnc([C@@H]5CCCN5C(=O)C5CCCC5)[nH]4)cc3)cc2)[nH]1` [Compound S-164] stands <10 fold; under `O=C(CC1CCCC1)N1CCC[C@H]1c1ncc(-c2ccc(-c3ccc(-c4cnc([C@@H]5CCCN5C(=O)CC5CCCC5)[nH]4)cc3)cc2)[nH]1` [Compound S-165], >10 fold; under `O=C(CCC1CCCC1)N1CCC[C@H]1c1ncc(-c2ccc(-c3ccc(-c4cnc([C@@H]5CCCN5C(=O)CCC5CCCC5)[nH]4)cc3)cc2)[nH]1` [Compound S-166], >10 fold.
Consider `O=C(C1CCCCC1)N1CCC[C@H]1c1ncc(-c2ccc(-c3ccc(-c4cnc([C@@H]5CCCN5C(=O)C5CCCCC5)[nH]4)cc3)cc2)[nH]1` [Compound S-167], for which the “Fold-Synergistic 1a (Q30E)” value is recorded as <10 fold.
Under `O=C(CC1CCCCC1)N1CCC[C@H]1c1ncc(-c2ccc(-c3ccc(-c4cnc([C@@H]5CCCN5C(=O)CC5CCCCC5)[nH]4)cc3)cc2)[nH]1` [Compound S-168] stands >10 fold.
Under `CCC(C)C(=O)N1CCC[C@H]1c1ncc(-c2ccc(-c3ccc(-c4cnc([C@@H]5CCCN5C(=O)C(C)CC)[nH]4)cc3)cc2)[nH]1` (stereo partly shown) [Compound S-169] stands <10 fold; under `CCCC(C)C(=O)N1CCC[C@H]1c1ncc(-c2ccc(-c3ccc(-c4cnc([C@@H]5CCCN5C(=O)C(C)CCC)[nH]4)cc3)cc2)[nH]1` (stereo partly shown) [Compound S-170], <10 fold; under `N#CCC(=O)N1CCC[C@H]1c1ncc(-c2ccc(-c3ccc(-c4cnc([C@@H]5CCCN5C(=O)CC#N)[nH]4)cc3)cc2)[nH]1` [Compound S-171], <10 fold.
Under `CCC(C)CC(=O)N1CCC[C@H]1c1ncc(-c2ccc(-c3ccc(-c4cnc([C@@H]5CCCN5C(=O)CC(C)CC)[nH]4)cc3)cc2)[nH]1` (stereo partly shown) [Compound S-172] stands >10 fold.
Consider `COC(=O)CCC(=O)N1CCC[C@H]1c1ncc(-c2ccc(-c3ccc(-c4cnc([C@@H]5CCCN5C(=O)CCC(=O)OC)[nH]4)cc3)cc2)[nH]1` [Compound S-173], for which the “Fold-Synergistic 1a (Q30E)” value is on record as <10 fold.
Under `CC(C)CCC(=O)N1CCC[C@H]1c1ncc(-c2ccc(-c3ccc(-c4cnc([C@@H]5CCCN5C(=O)CCC(C)C)[nH]4)cc3)cc2)[nH]1` [Compound S-174] stands <10 fold; under `Cn1cccc1C(=O)N1CCC[C@H]1c1ncc(-c2ccc(-c3ccc(-c4cnc([C@@H]5CCCN5C(=O)c5cccn5C)[nH]4)cc3)cc2)[nH]1` [Compound S-175], <10 fold.
`O=C(C1CCCCCC1)N1CCC[C@H]1c1ncc(-c2ccc(-c3ccc(-c4cnc([C@@H]5CCCN5C(=O)C5CCCCCC5)[nH]4)cc3)cc2)[nH]1` [Compound S-176]: the “Fold-Synergistic 1a (Q30E)” value is on record as >10 fold.
To `CC(C)(C)C(=O)N1CCC[C@H]1c1ncc(-c2ccc(-c3ccc(-c4cnc([C@@H]5CCCN5C(=O)C(C)(C)C)[nH]4)cc3)cc2)[nH]1` [Compound S-177] belongs <10 fold; to `O=C(Cc1ccccc1F)N1CCC[C@H]1c1ncc(-c2ccc(-c3ccc(-c4cnc([C@@H]5CCCN5C(=O)Cc5ccccc5F)[nH]4)cc3)cc2)[nH]1` [Compound S-178], <10 fold; to `C#CCCC(=O)N1CCC[C@H]1c1ncc(-c2ccc(-c3ccc(-c4cnc([C@@H]5CCCN5C(=O)CCC#C)[nH]4)cc3)cc2)[nH]1` [Compound S-179], <10 fold.
Take `CCCCC(=O)N1CCC[C@H]1c1ncc(-c2ccc(-c3ccc(-c4cnc([C@@H]5CCCN5C(=O)CCCC)[nH]4)cc3)cc2)[nH]1` [Compound S-180]: the “Fold-Synergistic 1a (Q30E)” value is listed as <10 fold.
In the case of `CCCCCC(=O)N1CCC[C@H]1c1ncc(-c2ccc(-c3ccc(-c4cnc([C@@H]5CCCN5C(=O)CCCCC)[nH]4)cc3)cc2)[nH]1` [Compound S-181], the “Fold-Synergistic 1a (Q30E)” value was >10 fold.
To `O=C(c1cccs1)N1CCC[C@H]1c1ncc(-c2ccc(-c3ccc(-c4cnc([C@@H]5CCCN5C(=O)c5cccs5)[nH]4)cc3)cc2)[nH]1` [Compound S-182] belongs <10 fold.
Take `O=C(c1ccsc1)N1CCC[C@H]1c1ncc(-c2ccc(-c3ccc(-c4cnc([C@@H]5CCCN5C(=O)c5ccsc5)[nH]4)cc3)cc2)[nH]1` [Compound S-183]: the “Fold-Synergistic 1a (Q30E)” value is listed as <10 fold.
Under `O=C(c1ccccn1)N1CCC[C@H]1c1ncc(-c2ccc(-c3ccc(-c4cnc([C@@H]5CCCN5C(=O)c5ccccn5)[nH]4)cc3)cc2)[nH]1` [Compound S-184] stands <10 fold; under `O=C(c1cccnc1)N1CCC[C@H]1c1ncc(-c2ccc(-c3ccc(-c4cnc([C@@H]5CCCN5C(=O)c5cccnc5)[nH]4)cc3)cc2)[nH]1` [Compound S-185], <10 fold.
Under `NC(=O)CCC(=O)N1CCC[C@H]1c1ncc(-c2ccc(-c3ccc(-c4cnc([C@@H]5CCCN5C(=O)CCC(N)=O)[nH]4)cc3)cc2)[nH]1` [Compound S-186] stands <10 fold; under `O=C(c1ccnnc1)N1CCC[C@H]1c1ncc(-c2ccc(-c3ccc(-c4cnc([C@@H]5CCCN5C(=O)c5ccnnc5)[nH]4)cc3)cc2)[nH]1` [Compound S-187], <10 fold.
